{"source": "patent EP0168965B1", "about": "“4(5)-substituted imidazoles” (ELI LILLY AND COMPANY, priority 1984, dated 1986)", "key": {"aromatase": {"biological_target": "T1, aromatase (Rattus norvegicus, UniProt P22443)", "T1 construct": "ovarian microsomes are obtained from rats treated with pregnant mares serum gonadotropin; from tissue; host or cells: rat ovarian microsomes (rats treated with pregnant mares serum gonadotropin)", "T1 sequence (P22443 1-508)": "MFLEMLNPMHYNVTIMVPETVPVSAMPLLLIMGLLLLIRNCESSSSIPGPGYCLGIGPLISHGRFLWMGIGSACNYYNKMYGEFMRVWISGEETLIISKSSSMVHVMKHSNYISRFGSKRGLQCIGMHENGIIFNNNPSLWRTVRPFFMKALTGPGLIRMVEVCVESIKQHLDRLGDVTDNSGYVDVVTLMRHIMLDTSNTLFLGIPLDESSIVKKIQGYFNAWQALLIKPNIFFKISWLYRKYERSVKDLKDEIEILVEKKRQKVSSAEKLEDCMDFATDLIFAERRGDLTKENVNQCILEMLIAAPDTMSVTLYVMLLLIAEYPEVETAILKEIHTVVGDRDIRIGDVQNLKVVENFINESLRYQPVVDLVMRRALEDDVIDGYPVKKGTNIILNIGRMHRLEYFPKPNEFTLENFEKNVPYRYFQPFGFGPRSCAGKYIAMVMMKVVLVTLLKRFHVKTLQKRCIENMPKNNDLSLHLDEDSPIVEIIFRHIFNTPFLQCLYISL", "test": "Aromatase inhibition in the rat ovarian microsome assay", "type": "biochemical", "conditions": "read-out: EC50 (the source's name)", "experimental": "In this test system, ovarian microsomes are obtained from rats treated with pregnant mares serum gonadotropin. Test compounds are added to reaction vials containing 0.1 µM 4-androstene-3,17-dione, 100,000 dpm 1,2[^3H]-androstenedione, the microsomes and a NADPH generating system. The concentrations of the inhibitors tested ranged between 0.005 and 10 um."}, "synthesis of estrogens": {"system": "synthesis of estrogens", "test": "Estrogen synthesis inhibition in rats (uterine weight and ovarian steroid concentrations)", "type": "in vivo, Immature female Wistar rats", "conditions": "for Mean Steroid Concentration estradiol / Mean Steroid Concentration estriol / Mean Steroid Concentration estrone: ovaries", "experimental": "Immature female Wistar rats (45-55 grams) were divided into control and test groups of 4-5 animals each. Test compounds were administered for seven days daily by gavage in corn oil. Control animals received corn oil without the test compound. Beginning on the fourth day of the test, all animals treated with the test compound and one half of the control animals were given a subcutaneous injection of 1.0 mg of testosterone propionate in corn oil. The remaining control animals received only an equivalent volume of corn oil. On the seventh day of the test, rats treated with testosterone propionate were injected subcutaneously with 100 µCi of [^3H]-testosterone in 50 pl of 3:1 (v/v) saline-ethanol.\nAfter two hours, the animals were killed by decapitation. Uteri were isolated, trimmed of extraneous connective tissue, and weighed. […] In the control animals treated with testosterone propionate, estrogens produced by aromatization stimulated the uterus resulting in an increase in weight.\nOvaries from rats treated with [^3H]-testosterone were excised, cleaned of extraneous tissue, and homogenized in 2.5 ml of a 1.0 mM potassium phosphate buffer containing 3.0 mM MgC12-6H20, 320 mM sucrose, and 0.25% Triton X-100 (polyethylene glycol p-isooctyl phenyl ether, Rohm and Haas) at pH 6.5. The ovarian steroids were extracted with 1.5 ml of 9:1 (v/v) toluene/ethanol to which had been added 25 to 100 mcg each of unlabelled estradiol, estriol, and estrone, and approximately 1000 dpm of [^14C]-estradiol. The samples were vortexed, centrifuged at 500 x g for 10 minutes, and the organic phase was transferred to a conical vial. Two additional extractions were performed on the residue in the same way. The pooled organic extracts were evaporated for subsequent thin-layer chromatography.\nOvarian proteins were precipitated by the addition of 5.0 ml of ethanol to the remaining aqueous phase. After an overnight incubation at 4°C, the samples were centrifuged at 1500 x g for 10 minutes. The supernatant was discarded and the pellet was dissolved in 0.3 N potassium hydroxide. Protein was determined according to the method of Bradford, Analytical Biochemistry, 72, 248 (1976).\nThe organic residue from each above extraction was redissolved in 9:1 (v/v) dichioromethane/ methanol. The solution of each sample was applied to separate silica gel thin layer chromatography plates which contained a fluorescent indicator. The plates were developed in the first dimension with 160:38:1.5:0.5 (v/v/v/v) dichloromethane/ethyl acetate/methanol/acetic acid to within 3 cm of the top of the plate. After air-drying, the plate was developed in the second dimension with 180:19:1 (v/v/v) dichloromethane/methanol/ammonium hydroxide. The plate was air-dried and viewed under 254 nm UV light.\nThe visible spots were marked and the plates were sprayed with primulin (0.001% in 4:1 v/v acetone/ water) according to the method of Wright, J. Chromatography, '59, 220 (1971) which allowed for the identification of additional steroids under 365 nm UV light. The spots were scraped from the plate using a glass wool plugged Pasteur pipet attached to a vacuum line. The steroids were eluted directly into scintillation vials by the addition of 0.2 ml of dichloromethane followed by two washes each of 2.0 ml of methanol. The organic solvent was evaporated and 10.0 ml of scintillation fluid (Beckman Ready Solv-NA) was added to the vials. Samples were analyzed by liquid scintillation spectrometry. Corrections were made based on the recoveries of the [^14C]-steroid. Steroid concentrations are expressed as femtomoles per milligram protein."}, "[1]": {"conditions": "1 mg/kg p.o. by gavage daily for seven days"}, "[2]": {"conditions": "3 mg/kg p.o. by gavage daily for seven days"}, "[3]": {"conditions": "10 mg/kg p.o. by gavage daily for seven days"}, "[4]": {"conditions": "30 mg/kg p.o. by gavage daily for seven days"}, "[5]": {"conditions": "100 mg/kg p.o. by gavage daily for seven days"}}, "data": [{"smiles": "Fc1ccc(C(c2ccc(Cl)cc2)c2c[nH]cn2)cc1", "note": "(stereo not shown) [Example 2, 4(5)-[(4-Chlorophenyl)(4-fluorophenyl)methyl]imidazole]", "values": [{"measurement": "IC50", "setting": "aromatase", "value": "< 0.05", "unit": "µM"}]}, {"smiles": "OC(c1ccc(Cl)cc1)(c1ccc(Cl)cc1)c1c[nH]cn1", "note": "[Example 3, a,a-bis(4-chlorophenyl)-4(5)-imidazolemethanol]", "values": [{"measurement": "Mean Steroid Concentration estradiol", "setting": "synthesis of estrogens; [1]", "value": "0.35 femtomoles per milligram of protein"}, {"measurement": "Mean Steroid Concentration estriol", "setting": "synthesis of estrogens; [1]", "value": "0.132 femtomoles per milligram of protein"}, {"measurement": "Mean Steroid Concentration estrone", "setting": "synthesis of estrogens; [1]", "value": "0.00 femtomoles per milligram of protein"}, {"measurement": "Mean Uterine Weight", "setting": "synthesis of estrogens; 1 mg/kg p.o. by gavage daily for seven days, testosterone propionate-treated rats", "value": 214.2, "unit": "mg"}, {"measurement": "Mean Steroid Concentration estradiol", "setting": "synthesis of estrogens; [2]", "value": "0.31 femtomoles per milligram of protein"}, {"measurement": "Mean Steroid Concentration estriol", "setting": "synthesis of estrogens; [2]", "value": "0.383 femtomoles per milligram of protein"}, {"measurement": "Mean Steroid Concentration estrone", "setting": "synthesis of estrogens; [2]", "value": "0.05 femtomoles per milligram of protein"}, {"measurement": "Mean Uterine Weight (mg)", "setting": "synthesis of estrogens; 3 mg/kg p.o. by gavage daily for seven days, testosterone propionate-treated rats", "value": "158.8^+ mg"}, {"measurement": "Mean Steroid Concentration estradiol", "setting": "synthesis of estrogens; [3]", "value": "0.19^+ femtomoles per milligram of protein"}, {"measurement": "Mean Steroid Concentration estriol", "setting": "synthesis of estrogens; [3]", "value": "0.218 femtomoles per milligram of protein"}, {"measurement": "Mean Steroid Concentration estrone", "setting": "synthesis of estrogens; [3]", "value": "0.03 femtomoles per milligram of protein"}, {"measurement": "Mean Uterine Weight (mg)", "setting": "synthesis of estrogens; 10 mg/kg p.o. by gavage daily for seven days, testosterone propionate-treated rats", "value": "131.2^+ mg"}, {"measurement": "Mean Steroid Concentration estradiol", "setting": "synthesis of estrogens; [4]", "value": "0.22 femtomoles per milligram of protein"}, {"measurement": "Mean Steroid Concentration estriol", "setting": "synthesis of estrogens; [4]", "value": "0.391 femtomoles per milligram of protein"}, {"measurement": "Mean Steroid Concentration estrone", "setting": "synthesis of estrogens; [4]", "value": "0.07 femtomoles per milligram of protein"}, {"measurement": "Mean Uterine Weight (mg)", "setting": "synthesis of estrogens; 30 mg/kg p.o. by gavage daily for seven days, testosterone propionate-treated rats", "value": "96.2^+ mg"}, {"measurement": "Mean Steroid Concentration estradiol", "setting": "synthesis of estrogens; [5]", "value": "0.10^+ femtomoles per milligram of protein"}, {"measurement": "Mean Steroid Concentration estriol", "setting": "synthesis of estrogens; [5]", "value": "0.534^+ femtomoles per milligram of protein"}, {"measurement": "Mean Steroid Concentration estrone", "setting": "synthesis of estrogens; [5]", "value": "0.36^+ femtomoles per milligram of protein"}, {"measurement": "Mean Uterine Weight (mg)", "setting": "synthesis of estrogens; 100 mg/kg p.o. by gavage daily for seven days, testosterone propionate-treated rats", "value": "79.5^+ mg"}]}, {"smiles": "Fc1ccc(C(c2ccc(F)cc2)c2c[nH]cn2)cc1", "note": "[Example 1, 4(5)-[Bis(4-fluorophenyl)methyl]-1H-imidazole]", "values": [{"measurement": "IC50", "setting": "aromatase", "value": "< 0.05", "unit": "µM"}]}]}
